According to patent publication US5132424A, “Pyrazolo-pyrrolo-pyrimidine-diones” (The Upjohn Company, priority 1991, dated 1992):

Experiments:
ACAT enzyme [1] = conditions: known drug; cited from earlier work
ACAT enzyme [2] = assay: ACAT Inhibition Assay (inhibition of cholesterol esterification in cultured Fu5AH rat hepatoma cells); assay type: cell-based; design: key to Activity: Active: Compounds with ACAT inhibiting activity equal to, or greater than, that of chloropromazine are declared active; conditions: for % Inhib. of Chol. Esterf.: Fu5AH cells, 18 hours; for Activity: compared with chlorpromazine
Description: A standard in vitro test system designed to identify compounds capable of inhibitory the ACAT enzyme in cultured Fu5AH rat hepatoma cells which was used to test the compounds of this invention, among others, is described hereinbelow.
Since the ACAT enzyme in Fu5AH cells is similar if not identical to the ACAT enzyme in arterial tissue in valuable, warm-blooded animals, including humans, the Fu5AH cell test represents a more efficient, simplified and economical means of screening for ACAT inhibitors than similar assays which depend upon the use of arterial tissue and arterial subfractions as the source of the ACAT enzyme.
For our in vitro test the Fu5AH rat hepatoma cell line was selected as our source of the ACAT enzyme since this particular cell line mimicked important characteristics of human and valuable animal arterial cells during the development of atherosclerosis. The Fu5AH cells accumulate cholesterol extensively when incubated with hyperlipemic plasma proteins; more importantly, Fu5HA cells accumulated the cholesterol predominantly as the esterified form through the action of the ACAT enzyme. See Rothblat, G. H., "Cholesteryl Ester Metabolism in Tissue Culture Cell. I. Accumulation in Fu5AH Rat Hepatoma Cells", Lipids, 9, (1974) page 526.
The Fu5AH cells used in our in vitro assay were first acquired from G. H. Rothblat, supra, of the Medical College of Pa.
The Fu5AH rat hepatoma cell-line was derived from the Reuber H-35 rat hepatoma. (See Reuber, M.D., "A Transplantable Bilesecreting Hepatocellular Carcinoa in the Rat", J. Natl., Cancer Inst., 26 (1961), page 891. The cell-line is maintained in Eagle's Minimal Essential Medium (MEM, GiBCO) supplemented with 5% bovine fetal calf serum. Incubation is at 36° C. in an atmosphere of 5% CO2 in air (Hotpack, Model 351922). Cells from stock cultures, grown to confluency in 25 cm^2 flasks (Falcon) containing 10 ml. medium, are detached with 0.25% trypsin in 1% ethylenediaminetetraacetic acid (EDTA) (Gibco), diluted 1:10 with MEM and mixed by agitation through a pipette which serves to disrupt the cellular clumps. Stock cultures are replenished with fresh medium at 3 to 4 day intervals.
One ml. aliquots of the diluted stock suspension described above are then transferred to 60 mm. dishes (Falcon) containing four ml. MEM and the seeded cells are allowed to grow to confluence (three days). At confluence, the medium is removed by aspiration and the cells are washed once with MEM. Five ml. of MEM supplemented with 5% hyperlipemic rabbit serum (HRS) (HRS is obtained from male New Zealane rabbits fed Purina Chow® rabbit feed supplemented with 1% cholesterol and 3% peanut oil (w/w/w/) for two to three weeks. Pooled sera from two or more rabbits are filtered through a 0.45 mμ filter (Nalgene) and stored frozen in convenient aliquots until used) and containing 1μ Ci/ml of ^3 H-cholesterol are then added to the dishes as the experimental (assay) medium. The experimental medium is labeled with 1,2-^3 H(N)-cholesterol (sp. act. approx. 40-60 Ci/mol, New Zealand Nuclear Corp.) prior to its addition to the confluent cultures and is prepared as follows. Five ml. of HRS is diluted with approximately 20 ml of MEM and the mixture is labeled by the addition of 100 μCi ^3 H-cholesterol dissolved in 100 μl absolute ethyl alcohol. The resulting mixture is then incubated for four hours at 36° C. to permit equilibration of the labeled cholesterol with the serum lipoprotein-cholesterol. After the equilibration period, the mixture is diluted to 100 ml. with MEM and used as the labeled assay medium. Following the addition of the labeled medium to the dishes, dimethylsulfoxide solutions of the test substances and the positive standard chloropromazine HCl (1 mg/ml) are added to the cultures in volumes of 25, 50, […]; control cultures receive equivalent volumes of dimethylsufoxide alone. […]

Structure (SMILES)	ACAT enzyme inhibition (in words) (ACAT enzyme [1])	activity in the ACAT enzyme screen (in words) (ACAT enzyme [2]; starting material)	% Inhib. of Chol. Esterf. (ACAT enzyme [2]; 5.0 ug/ml)	Activity (ACAT enzyme [2]; 5.0 ug/ml)	% Inhib. of Chol. Esterf. (ACAT enzyme [2]; 10.0 ug/ml)	Activity (ACAT enzyme [2]; 10.0 ug/ml)	% Inhib. of Chol. Esterf. (ACAT enzyme [2]; 15.0 ug/ml)	Activity (ACAT enzyme [2]; 15.0 ug/ml)	% Inhib. of Chol. Esterf. (ACAT enzyme [2]; 25.0 ug/ml (so in the source))	Activity (ACAT enzyme [2]; 25.0 ug/ml (so in the source))
CC(C)NC[C@H](O)COc1cccc2ccccc12 (racemic) [propanolol]	ACAT enzyme inhibiting activity									
O=C1c2[nH]c3cc(-c4ccccc4)nn3c(=O)c2CN1C1CCCCC1 [6-Cyclohexyl-4,7-dihydro-2-phenyl-5H-pyrazolo[1,5-a]pyrrolo[3,4-d]pyrimidine-5,8(6H)-dione, reference compound]		inactive								
CCCCCCn1c2c(c(=O)n3nc(-c4ccccc4)cc13)CN(C1CCCCC1)C2=O [Example 3, 6-Cyclohexyl-6,7-dihydro-4-hexyl-2-phenyl-4H-pyrazolo[1,5-a]pyrrolo[3,4-d]pyrimidine-5,8-dione]			43.4%	Active	48.2%	Active	49.2%	Active		
CCOc1ccc(-c2cc3n(Cc4ccccc4)c4c(c(=O)n3n2)CN(C2CCCCC2)C4=O)cc1 [Example 6, 6-Cyclohexyl-6,7-dihydro-2-(4-ethoxyphenyl)-4-(phenylmethyl)-(4H)-pyrazolo[1,5-a]pyrrolo[3,4-d]pyrimidine-5,8-dione]			49.8%	Active	75.4%	Active	87.2%	Active		
O=C1c2c(c(=O)n3nc(-c4ccccc4)cc3n2Cc2ccccc2)CN1c1ccccc1 [Example 7, 6,7-Dihydro-2,6-diphenyl-4-(phenylmethyl)-4H-pyrazolo[1,5-a]pyrrolo[3,4-d]-pyrimidine-5,8-dione]			21.2%	Active	17.6%	Inactive	15.0%	Inactive		
O=C1c2c(c(=O)n3nc(-c4ccccc4)cc3n2Cc2ccccc2)CN1Cc1ccccc1 [Example 8, 4,6-Bis(phenylmethyl)-6,7-dihydro-2-phenyl-4H-pyrazolo[1,5-a]pyrrolo[3,4-d]pyrimidine-5,8-dione]			60.8%	Active	89.5%	Active	92.3%	Active		
O=C1c2c(c(=O)n3nc(-c4ccccc4)cc3n2Cc2ccccc2)CCN1C1CCCCC1 [Example 9, 6-Cyclohexyl-2-phenyl-4-(phenylmethyl)-5,6,7,8-tetrahydro-4H-pyrazolo[1,5-a]pyrido[3,4-d]pyrimidine-5,9-dione]			53.2%	Active	82.1%	Active	89.8%	Active		
O=C1c2c(c(=O)n3ncc(-c4ccccc4)c3n2Cc2ccccc2)CN1C1CCCCC1 [Example 10, 6-Cyclohexyl-6,7-dihydro-3-phenyl-4-(phenylmethyl)-4H-pyrazolo-[1,5-a]pyrrolo[3,4-d]-pyrimidine-5,8-dione]			34.4%	Active	20.9%	Inactive	9.1%	Inactive		
O=C(Cn1c2c(c(=O)n3nc(-c4ccc(Cl)cc4)cc13)CN(C1CCCCC1)C2=O)c1ccccc1 [Example 11, 4-(Benzoylmethyl)-2-(4-chlorophenyl)-6-cyclohexyl-6,7-dihydro-4H-pyrazolo[1,5-a]pyrrolo[3,4-d]pyrimidine-5,8-dione]			78.2%	Active	84.5%	Active			89.2%	Active
O=C1c2c(c(=O)n3nc(-c4ccccc4)cc3n2CC(O)c2ccccc2)CN1C1CCCCC1 (stereo not drawn) [Example 14, 6-Cyclohexyl-6,7-dihydro-4-(2-hydroxy-2-phenylethyl)-2-phenyl-4H-oyrazolo[1,5-a] pyrrolo[3,4-d]pyrimidine-5,8-dione]			49.6%	Active	65.9%	Active	40.2%	Inactive		
C=CCOc1ccc(-c2cc3n(Cc4ccccc4)c4c(c(=O)n3n2)CN(C2CCCCC2)C4=O)cc1 [Example 15, 6-Cyclohexyl-6,7-dihydro-2-[4-(2-propenyloxy)phenyl]-4-phenylmethyl-4H-pyrazolo[1,5-a]pyrrolo[3,4-d]pyrimidine-5,8-dione]			36.0%	Active	65.3%	Active	84.3%	Active		
O=C1c2c(c(=O)n3nc(-c4ccc(O)cc4)cc3n2Cc2ccccc2)CN1C1CCCCC1 [Example 16, 6-Cyclohexyl-6,7-dihydro-2-(4-hydroxyphenyl)-4-phenyl-methyl-4H-pyrazolo[1,5-a]pyrrolo[3,4-d]pyrimidine-5,8-dione]			4.3%	Inactive	32.7%	Inactive	66.5%	Active		
CN1C(=O)CN=C(c2ccccc2)c2cc(Cl)ccc21 [diazepam]	ACAT enzyme inhibiting activity									
COc1ccc([C@@H]2Sc3ccccc3N(CCN(C)C)C(=O)[C@@H]2OC(C)=O)cc1 [diltiazem]	inhibit the ACAT enzyme									
COC(=O)C1=C(C)NC(C)=C(C(=O)OC)C1c1ccccc1[N+](=O)[O-] [nifedipine]	inhibit the ACAT enzyme									
COc1ccc(CCN(C)CCCC(C#N)(c2ccc(OC)c(OC)c2)C(C)C)cc1OC (stereo not drawn) [verapamil]	inhibit the ACAT enzyme									
